In series [1] the target is T1, recombinant D-AAO (Glutamicibacter protophormiae, UniProt Q7X2D3).
T1 construct: The restriction sites NdeI and BamHI were attached to the dao gene by PCR; made in house; host or cells: E. coli BL21(DE3)
Description: Substrate specificity of the recombinant D-AAO (photometric peroxidase/o-dianisidine test). To be noted: for activity at 10000 µM / activity at 20000 µM: read-out: Relative activity; for activity at 20000 µM: DL-amino acid, concentration increased to 20 mM; for Substrate quality (in words): partial substrate spectrum, Table 2; for Stereoselectivity: conversion of L-amino acids by D-AAO: L-amino acids as substrate. Format: biochemical, Arthrobacter protophormiae. On the procedure: (§1) To isolate D-AAO-forming microorganisms, soil samples were plated out on a nutrient medium in which coryneform bacteria can be concentrated: Na propionate 0.20 g; KNO3 0.01 g; KH2PO4 0.10 g; NaCl 0.25 g; MgSO4.7 H2O 0.10 g; CaCO3 0.02g; trace elements; vitamin solution; cycloheximide 0.05 g; if appropriate, agar 20.00 g; final pH 7.0. Microorganisms which grew on this medium were then transinoculated into a complex medium (DSM 65) with the following composition (per 1l): glucose 4.00 g; yeast extract 4.00 g; malt extract 10.00 g; agar 20 g; final pH 7.2. The strains were then multiplied in liquid medium (DSM 65), harvested by centrifugation, broken down, and the cell-free supernatant was obtained by centrifugation (=crude extract). This crude extract was then employed as an enzyme source for the photometric test for D-AAO activity. The test batch contained: 20 μl amino acid solution (100 mM); 80 μl TEA/o-dianisidine buffer; 10 μl peroxidase soln. (1,000 U/ml); 70 μl H2O; 20 μl crude extract. The measurement was carried out at 436 nm; 1 U corresponds to an amount of enzyme which converts 1 μmol of amino acid or 1 μmol of o-dianisidine per min (extinction coefficient ε for o-dianisidine=8.1 mM^−1 cm^−1).
A partial substrate spectrum was recorded for D-AAO (Table 2).
The stereoselectivity of the D-AAO was tested with the amino acids L-leucine, L-methionine and L-lysine. […] Thus, the D-AAO from Arthrobacter protophormiae can be described as highly stereoselective for D-amino acids.

The target in series [2] is T2, partly purified D-AAO (Glutamicibacter protophormiae, UniProt Q7X2D3).
T2 sequence (Q7X2D3 1-326): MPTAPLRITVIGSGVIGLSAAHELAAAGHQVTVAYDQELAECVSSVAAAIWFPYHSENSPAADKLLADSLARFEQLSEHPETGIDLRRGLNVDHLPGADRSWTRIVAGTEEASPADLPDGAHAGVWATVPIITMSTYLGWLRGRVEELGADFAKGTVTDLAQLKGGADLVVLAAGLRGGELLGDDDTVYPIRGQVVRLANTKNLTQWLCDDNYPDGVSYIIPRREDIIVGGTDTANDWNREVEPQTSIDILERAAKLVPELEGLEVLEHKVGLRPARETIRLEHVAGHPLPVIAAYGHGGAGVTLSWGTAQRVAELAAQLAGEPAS
Description: biochemical. To be noted: read-out: Substrate excess inhibition K1. On the procedure:
as §1

For series [3], the target named is T3, D-AAO (Glutamicibacter protophormiae, UniProt Q7X2D3).
T3 sequence (Q7X2D3 whole entry, looked up): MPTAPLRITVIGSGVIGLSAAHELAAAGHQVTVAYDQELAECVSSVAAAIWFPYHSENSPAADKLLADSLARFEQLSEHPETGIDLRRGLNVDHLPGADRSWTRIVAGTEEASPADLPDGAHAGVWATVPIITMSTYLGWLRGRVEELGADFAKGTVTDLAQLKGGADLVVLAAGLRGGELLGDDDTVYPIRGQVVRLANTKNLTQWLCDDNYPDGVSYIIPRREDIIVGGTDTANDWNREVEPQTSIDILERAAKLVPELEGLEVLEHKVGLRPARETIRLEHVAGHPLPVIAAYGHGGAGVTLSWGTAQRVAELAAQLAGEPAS
Nature of the series: Influence of pH on D-AAO activity. The format is biochemical, Arthrobacter protophormiae. To be noted: three substrates (lysine, phenylalanine, methionine), 10 mM; three 80 mM buffers. On the procedure: The enzyme activity was measured with three different substrates in the following 80 mM buffers: ♦ citric acid-sodium phosphate, pH 5–7; ▪ TEA/HCl, pH 7–8.5; ▴ glycine/NaOH, pH 8.5–11. Each D-amino acid tested was employed in a final concentration of 10 mM.
The influence of pH on the activity of the D-AAO with respect to the substrates […] was investigated in three different buffers: citric acid-sodium phosphate […]; TEA/HCl pH 7.0–8.5; and glycine/NaOH pH 8.5–11). The optimum pH for all three substrates was in the weakly basic range, between pH 7.5–8.5 (FIG. 2).

Series [4] can be described thus: D-AAO activity assay (specific activity of enzyme preparations). The format is biochemical. On the procedure:
as §1
Recombinant D-AAO was purified to homogeneity using a two-step procedure (Table 1). E. coli BL21(DE3) carrying pApdao was disrupted by ultrasonification and cell debris was removed by centrifugation. The cleared supernatant was loaded onto a Q-Sepharose FF column (h 10 cm×Ø 2.6 cm) (Amersham Bioscience), which was equilibrated with 10 mM potassium phosphate buffer pH 7.0 and run at a flow rate of 2 ml/min. The column was washed with 10 mM potassium phosphate buffer pH 7.0 containing 0.2 M NaCl and the D-AAO was eluted by increasing the salt concentration up to 0.35 M. Active fractions were pooled and loaded onto a column, which was packed with ceramic MacroPrep hydroxyapatite, type I (h 8.3 cm×Ø 1.6 cm) (Bio-Rad). The column was equilibrated with 10 mM potassium phosphate buffer pH 6.8 containing 150 mM NaCl and the flow rate was 2 ml/min. The D-AAO was detected in the flow-through.

Series [5] is described as follows: Isoelectric focussing of D-AAO. Format: physicochemical. As to conditions: experimentally determined, polyacrylamide gels pH 4–6. On the procedure:
A molecular mass for a monomer of the D-AAO of 40 kDA was determined by means of SDS gel electrophoresis. […] The calculated molecular mass of the monomer was 34.6 kDa without and 35.4 kDa with FAD. These values indicate that the enzyme has a dimeric structure. Isoelectric focussing was performed using precast Serva polyacrylamide gels with a narrow pH range (pH 4–6). The experimentally determined pI was 4.4.

Substrate in series [6]: CSCC[C@@H](N)C(=O)O
Nature of the series: purified protein, by the assay type. As to conditions: other: partly purified D-AAO.

Regarding `CC(C)[C@@H](N)C(=O)O` [D-Valine], in series [1], the activity at 10000 µM came to 0.35%.
Turning to `CNC(CC(C)C)C(=O)O` (racemic) [N-Methyl-DL-leucine], the activity at 20000 µM in series [1] is 2.1%.
Take `N[C@H](Cc1c[nH]cn1)C(=O)O` [D-Histidine]: the activity at 10000 µM in series [1] stood at 5.9%.
For the molecule `CC[C@H](C)[C@@H](N)C(=O)O` [D-allo-Isoleucine], the activity at 10000 µM in series [1] is 1%.
Consider `O=C(O)[C@H]1CCCN1` [D-Proline], for which, in series [1], the activity at 10000 µM was 0.25%.
Take `CC(C)(C)C(N)C(=O)O` (racemic) [DL-tert-Leucine]: in series [1], the activity at 20000 µM was found to be 0.12%.
With `NC(Cc1ccc(F)cc1)C(=O)O` (racemic) [4-Fluoro-DL-phenylalanine], the activity at 20000 µM in series [1] turned out to be 81%.
As to `CSCC[C@@H](N)C(=O)O` [D-Methionine], in series [1], the “Substrate quality (in words)” value is “best substrates” and the activity at 10000 µM turned out to be 100%.
The corresponding values for `NCCCC[C@@H](N)C(=O)O` [D-Lysine] are “best substrates” and 99%.
Consider `N[C@H](Cc1ccccc1)C(=O)O` [D-Phenylalanine], for which, in series [1], the “Substrate quality (in words)” value is “effective in converting” and the activity at 10000 µM is 54%. For the same molecule, the Ki in series [2] was 55 mM.
Consider `COCC(N)C(=O)O` (racemic) [O-Methyl-DL-serine], for which the activity at 20000 µM in series [1] worked out at 0.33%.
For `N=C(N)NCCC[C@@H](N)C(=O)O` [D-Arginine], in series [1], the “Substrate quality (in words)” value was “effective in converting” and the activity at 10000 µM is 80%.
Turning to `CC(C)C[C@H](N)C(=O)O` [L-leucine], in series [1], the “Stereoselectivity: conversion of L-amino acids by D-AAO” value is given as “None of these compounds were converted”.
Still for that read-out and setting: for `CSCC[C@H](N)C(=O)O` [L-methionine] the value was “None of these compounds were converted”.
With `NCCCC[C@H](N)C(=O)O` [L-lysine], the “Stereoselectivity: conversion of L-amino acids by D-AAO” value in series [1] is “None of these compounds were converted”.
For the molecule `CC(C)C[C@@H](N)C(=O)O` [D-Leucine], the activity at 10000 µM in series [1] is 12%.
The same measure, in the same setting: for `C[C@@H](N)C(=O)O` [D-Alanine] the value was 0.26%.

B1: partly purified D-AAO (Glutamicibacter protophormiae) (protein)
chain: MPTAPLRITVIGSGVIGLSAAHELAAAGHQVTVAYDQELAECVSSVAAAIWFPYHSENSPAADKLLADSLARFEQLSEHPETGIDLRRGLNVDHLPGADRSWTRIVAGTEEASPADLPDGAHAGVWATVPIITMSTYLGWLRGRVEELGADFAKGTVTDLAQLKGGADLVVLAAGLRGGELLGDDDTVYPIRGQVVRLANTKNLTQWLCDDNYPDGVSYIIPRREDIIVGGTDTANDWNREVEPQTSIDILERAAKLVPELEGLEVLEHKVGLRPARETIRLEHVAGHPLPVIAAYGHGGAGVTLSWGTAQRVAELAAQLAGEPAS
As to B1, the “Optimum pH” value in series [3] is 7.5–8.5 pH. For the same molecule, the Specific activity was determined as 180 U/mg in series [4] (after Hydroxyapatite (second chromatography), 10 mM D-Met, pH 7.6, 30° C.); 80 U/mg in series [4] (after Q-Sepharose, 10 mM D-Met, pH 7.6, 30° C.); 15 U mg^−1 in series [4] (after high cell density fermentation of E. coli BL21(DE3) carrying pE1D); 30 U/mg in series [4] (crude extract, E. coli BL21(DE3), 3 g cells, 10 mM D-Met, pH 7.6, 30° C.). The “Specific activity in the crude extracts of recombinant cells” value in series [4] (crude extracts of recombinant cells) is on record as 15–30 U mg^−1. In series [4] (shaking flask, E. coli BL21(DE3) pE1D, 100 μM IPTG, 4 h at 30° C.), the “Specific D-AAO activity in the crude extract” value came out at 30 U/mg. The molecule further yielded a pI in series [5] of 4.4. In series [6], the Km (commonly the substrate concentration at which the rate is half of its maximum) was determined as 900 µM.
